Test results reported in ChEMBL document CHEMBL4266036, “Hoshinoamides A and B, Acyclic Lipopeptides from the Marine Cyanobacterium Caldora penicillata” (J Nat Prod, 2018).

How the values were obtained:
Plasmodium falciparum = test: Antiplasmodial activity against Plasmodium falciparum 3D7 […] after 72 hrs by NBT dye based LDH assay; assay type: functional, organism-based; conditions: 3D7, 72 h
HeLa = test: Cytotoxicity against human HeLa cells after 72 hrs by MTT assay; assay type: cell-based

| IC50 (Plasmodium falciparum) [µM] | SMILES | IC50 (HeLa) [µM] |
| --- | --- | --- |
| 1 | CC[C@H](C)[C@H](NC(=O)[C@H](CC(C)C)N(C)C(=O)CCCCCCCCNC(=O)CCCc1ccc(O)cc1)C(=O)N(C)[C@@H](C(=O)N[C@@H](CCC(N)=O)C(=O)N1CCC[C@H]1C(=O)N(C)[C@@H](Cc1ccccc1)C(=O)N1CCC[C@H]1C(=O)OC)C(C)C | 29 |
| 0.52 | CC[C@H](C)[C@H](NC(=O)[C@H](CC(C)C)N(C)C(=O)CCCCCNC(=O)CCCc1ccc(O)cc1)C(=O)N(C)[C@@H](C(=O)N[C@@H](CCC(N)=O)C(=O)N[C@H](C(=O)N(C)[C@H](Cc1ccccc1)C(=O)N1CCC[C@H]1C(=O)OC)C(C)C)C(C)C | 14 |
